# Results from patent US10829458B2 (Araxes Pharma LLC, priority 2015, dated 2020).
# Target: T1, KRAS G12C 1-169, his-tagged protein, GDP-loaded (Homo sapiens, UniProt P01116, G12C)
# T1 construct: KRAS G12C 1-169, his-tagged protein, GDP-loaded
# Test: Biochemical assay: covalent modification of KRAS G12C measured by mass spectrometry (RapidFire/TOF or Q-Exactive)
# Settings: covalent binding to KRAS G12C; compounds of structure (I)
# In short: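 Covalent adduct formation read by intact-mass spectrometry (TOF or Q Exactive Plus, charge envelopes deconvoluted into modified and unmodified species) after formic acid quench. Reactions contained 2 μM GDP-bound KRAS G12C 1-169 (his-tag) in Hepes/NaCl/MgCl2 buffer plus 10, 30 or 100 μM final compound, held 30 min, 2 h or 24 h at room temperature.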
row,Structure (SMILES),Binding %
1,"C=CC(=O)N1CCN(c2nc(OCCn3ccnc3C)nc3c(F)c(-c4c(C)ccc5[nH]ncc45)c(Cl)cc23)CC1 [Example I-6, 1-(4-(6-chloro-8-fluoro-2-(2-(2-methyl-1H-imidazol-1-yl)ethoxy)-7-(5-methyl-1H-indazol-4-yl)quinazolin-4-yl)piperazin-1-yl)prop-2-en-1-one]",+++ (+++ indicates binding activity greater than 90%)
2,"C=CC(=O)N1CCN(c2nc(OC3CN(C(C)C)C3)nc3c(F)c(-c4c(O)cccc4F)c(Cl)cc23)CC1 [Example I-178, 1-(4-(6-chloro-8-fluoro-7-(2-fluoro-6-hydroxyphenyl)-2-((1-isopropyl-azetidin-3-yl)oxy)quinazolin-4-yl)piperazin-1-yl)prop-2-en-1-one]",++ (++ indicates binding activity from 50 to 90%)
3,"C=CC(=O)N1CCN(c2nc(NC3CN(c4ncccn4)C3)nc3c(F)c(-c4c(C)ccc5[nH]ncc45)c(Cl)cc23)CC1 [Example I-187, 1-(4-(6-chloro-8-fluoro-7-(5-methyl-1H-indazol-4-yl)-2-((1-(pyrimidin-2-yl)azetidin-3-yl)amino)quinazolin-4-yl)piperazin-1-yl) prop-2-en-1-one]",+ (+ indicates binding activity up to 50%)
4,"C=CC(=O)N1CCN(c2nc(OC3CCN(C(C)=O)CC3)nc3c(F)c(-c4c(O)cccc4F)c(Cl)cc23)CC1 [Example I-115, 1-(4-(2-(1-acetylpiperidin-4-yloxy)-6-chloro-8-fluoro-7-(2-fluoro-6-hydroxyphenyl)quinazolin-4-yl)piperazin-1-yl) prop-2-en-1-one]",+++ (+++ indicates binding activity greater than 90%)
5,"C=CC(=O)N1CCN(c2nc(NCCc3ncccn3)nc3c(F)c(-c4c(O)cccc4F)c(Cl)cc23)CC1 [Example I-171, 1-(4-(6-chloro-8-fluoro-7-(2-fluoro-6-hydroxyphenyl)-2-((2-(pyrimidin-2-yl)ethyl)amino)quinazolin-4-yl)piperazin-1-yl) prop-2-en-1-one]",++ (++ indicates binding activity from 50 to 90%)
6,"C=CC(=O)N1CCN(c2nc(OCCn3ccnc3)nc3c(F)c(-c4c(C)ccc5[nH]ncc45)c(Cl)cc23)CC1 [Example I-7, 1-(4-(2-(2-(1H-imidazol-1-yl)ethoxy)-6-chloro-8-fluoro-7-(5-methyl-1H-indazol-4-yl)quinazolin-4-yl)piperazin-1-yl)prop-2-en-1-one]",++ (++ indicates binding activity from 50 to 90%)
7,"C=CC(=O)N1CCN(c2nc(NC3CCN(CC#N)CC3)nc3c(F)c(-c4c(C)ccc5[nH]ncc45)c(Cl)cc23)CC1 [Example I-165, 2-(4-((4-(4-acryloyl-piperazin-1-yl)-6-chloro-8-fluoro-7-(5-methyl-1H-indazol-4-yl)quinazolin-2-yl)amino)piperidin-1-yl) acetonitrile]",++ (++ indicates binding activity from 50 to 90%)
8,"C=CC(=O)N1CCN(c2nc(OCCN3CCOCC3)nc3c(F)c(-c4cc(O)cc5ccccc45)c(Cl)cc23)CC1 (atropisomer, axis not shown) [Example I-51, (S)-1-(4-(6-chloro-8-fluoro-7-(3-hydroxy-naphthalen-1-yl)-2-(2-morpholino-ethoxy)quinazolin-4-yl)piperazin-1-yl)prop-2-en-1-one]",+++ (+++ indicates binding activity greater than 90%)
9,"C=CC(=O)N1CCN(c2nc(Oc3cnn(C)c3)nc3c(F)c(-c4c(O)cccc4F)c(Cl)cc23)CC1 [Example I-25, 1-(4-(6-chloro-8-fluoro-7-(2-fluoro-6-hydroxyphenyl)-2-(1-methyl-1H-pyrazol-4-yloxy)quinazolin-4-yl)piperazin-1-yl)prop-2-en-1-one]",+++ (+++ indicates binding activity greater than 90%)
10,"C=CC(=O)N1CCN(c2nc(OCC(F)(F)c3ccccn3)nc3c(F)c(-c4c(C)ccc5[nH]ncc45)c(Cl)cc23)CC1 [Example I-123, 1-(4-(6-chloro-2-(2,2-difluoro-2-(pyridin-2-yl)ethoxy)-8-fluoro-7-(5-methyl-1H-indazol-4-yl)quinazolin-4-yl)piperazin-1-yl) prop-2-en-1-one]",+++ (+++ indicates binding activity greater than 90%)
11,"C=CC(=O)N1CCN(c2nc(OC3CCN(CC(F)(F)F)CC3)nc3c(F)c(-c4c(O)cccc4F)c(Cl)cc23)CC1 [Example I-27, 1-(4-(6-chloro-8-fluoro-7-(2-fluoro-6-hydroxyphenyl)-2-(1-(2,2,2-trifluoroethyl)piperidin-4-yloxy)quinazolin-4-yl)piperazin-1-yl)prop-2-en-1-one]",+++ (+++ indicates binding activity greater than 90%)
12,"C=CC(=O)N1CCN(c2nc(OCCc3cccc(C)n3)nc3c(F)c(-c4c(O)cccc4F)c(Cl)cc23)CC1 [Example I-89, 1-(4-(6-chloro-8-fluoro-7-(2-fluoro-6-hydroxyphenyl)-2-(2-(6-methyl-pyridin-2-yl)ethoxy)quinazolin-4-yl)piperazin-1-yl)prop-2-en-1-one]",+++ (+++ indicates binding activity greater than 90%)
13,"C=CC(=O)N1CCN(c2nc(N3CC4(CCOC4)C3)nc3c(F)c(-c4c(O)cccc4F)c(Cl)cc23)CC1 [Example I-155, 1-(4-(6-chloro-8-fluoro-7-(2-fluoro-6-hydroxyphenyl)-2-(6-oxa-2-azaspiro[3,4]octan-2-yl)quinazolin-4-yl)piperazin-1-yl) prop-2-en-1-one]",+++ (+++ indicates binding activity greater than 90%)
14,"C=CC(=O)N1CCN(c2nc(OCc3ccnnc3)nc3c(F)c(-c4c(O)cccc4F)c(Cl)cc23)CC1 [Example I-127, 1-(4-(6-chloro-8-fluoro-7-(2-fluoro-6-hydroxyphenyl)-2-(pyridazin-4-ylmethoxy)quinazolin-4-yl)piperazin-1-yl) prop-2-en-1-one]",+++ (+++ indicates binding activity greater than 90%)
15,"C=CC(=O)N1CCN(c2nc(OC3COC3)nc3c(F)c(-c4c(O)cccc4F)c(Cl)cc23)CC1 [Example I-19, 1-(4-(6-chloro-8-fluoro-7-(2-fluoro-6-hydroxyphenyl)-2-(oxetan-3-yloxy)quinazolin-4-yl)piperazin-1-yl)prop-2-en-1-one]",++ (++ indicates binding activity from 50 to 90%)
16,"C=CC(=O)N1CCN(c2nc(OC3CCN(C(C)C)CC3)nc3c(F)c(-c4c(C)ccc5[nH]ncc45)c(Cl)cc23)CC1 [Example I-193, 1-(4-(6-chloro-8-fluoro-2-((1-isopropyl-piperidin-4-yl)oxy)-7-(5-methyl-1H-indazol-4-yl)quinazolin-4-yl)piperazin-1-yl) prop-2-en-1-one]",+++ (+++ indicates binding activity greater than 90%)
17,"C=CC(=O)N1CCN(c2nc(NC3CCN(C)CC3)nc3c(F)c(-c4c(O)cccc4F)c(Cl)cc23)CC1 [Example I-3, 1-(4-(6-chloro-8-fluoro-7-(2-fluoro-6-hydroxyphenyl)-2-(1-methylpiperidin-4-ylamino)quinazolin-4-yl)piperazin-1-yl) prop-2-en-1-one]",+++ (+++ indicates binding activity greater than 90%)
18,"C=CC(=O)N1CCN(c2nc(OCC3CCOCC3)nc3c(F)c(-c4c(C)ccc5[nH]ncc45)c(Cl)cc23)CC1 [Example I-15, 1-(4-(6-chloro-8-fluoro-7-(5-methyl-1H-indazol-4-yl)-2-((tetrahydro-2H-pyran-4-yl)methoxy)quinazolin-4-yl)piperazin-1-yl)prop-2-en-1-one]",+++ (+++ indicates binding activity greater than 90%)

# Same assay, conditions: covalent binding to KRAS G12C; compounds of structure (II)
row,Structure (SMILES),Binding %
1,"C=CC(=O)N1CCN(c2ncnc3c(F)c(-c4c(F)cccc4OCc4cnc([N+](=O)[O-])n4C)c(Cl)cc23)CC1 [II-10, 1-(4-(6-chloro-8-fluoro-7-(2-fluoro-6-((1-methyl-2-nitro-1H-imidazol-5-yl)methoxy)phenyl)quinazolin-4-yl)piperazin-1-yl)prop-2-en-1-one]",+++ (+++ indicates binding activity of 75% or greater)
2,"O=C(/C=C/CN1CCC1)N1CCN(c2ncnc3c(F)c(-c4c(O)cccc4F)c(Cl)cc23)CC1 [II-2, (E)-4-(azetidin-1-yl)-1-(4-(6-chloro-8-fluoro-7-(2-fluoro-6-hydroxyphenyl)quinazolin-4-yl)piperazin-1-yl)but-2-en-1-one]",+++ (+++ indicates binding activity of 75% or greater)

# Same assay, conditions: covalent binding to KRAS G12C; compounds of structure (III)
row,Structure (SMILES),Binding %
1,"C=CC(=O)N1CCN(c2ncnc3c(F)c(-c4c(O)cccc4F)c(Cl)cc23)C2(CC2)C1 [III-31, 1-(4-(6-chloro-8-fluoro-7-(2-fluoro-6-hydroxy-phenyl)quinazolin-4-yl)-4,7-diazaspiro [2.5]octan-7-yl)prop-2-en-1-one]",+ (+ indicates binding activity up to 50%)
2,"C=CC(=O)N1CCN(c2ncnc3c(F)c(-c4c(C)ccc5[nH]ncc45)c(Cl)cc23)[C@@H](C)C1 [III-25, 1-((3S)-4-(6-chloro-8-fluoro-7-(5-methyl-1H-indazol-4-yl)quinazolin-4-yl)-3-methyl-piperazin-1-yl)prop-2-en-1-one]",+++ (+++ indicates binding activity greater than 90%)
3,"C=CC(=O)N1CCN(c2ncnc3c(F)c(-c4c(O)cccc4F)c(Cl)cc23)[C@@H](CO)C1 [III-39, 1-((3R)-4-(6-chloro-8-fluoro-7-(2-fluoro-6-hydroxy-phenyl)quinazolin-4-yl)-3-(hydroxy-methyl)piperazin-1-yl)prop-2-en-1-one]",+ (+ indicates binding activity up to 50%)
4,"C=CC(=O)N1C[C@@H](C)N(c2ncnc3c(F)c(-c4c(C)ccc5[nH]ncc45)c(Cl)cc23)[C@@H](C)C1 [III-40, 1-((3S,5R)-4-(6-chloro-8-fluoro-7-(5-methyl-1H-indazol-4-yl)quinazolin-4-yl)-3,5-dimethyl-piperazin-1-yl)prop-2-en-1-one]",++ (++ indicates activity from 50% to 90%)
